Measured values reported in patent US20160297763A1, “Heteroaryl hydroxamic acid derivatives and their use in the treatment, amelioration or prevention of a viral disease” (priority 2011, published 2016).

| SMILES | melting point |
| --- | --- |
| O=C(Nc1ccnc(C(=O)NO)c1)c1ccccc1 | 175 to 184 °C |
| Cc1c(-c2ccc(F)c(C#N)c2F)sc2nc(N)[nH]c(=O)c12 | 360 to 380 °C |
| Cl.O=C(NO)c1cc(NS(=O)(=O)Cc2cc(Cl)cc(Cl)c2)ccn1 | 203 to 205 °C |
| NC(=O)c1cccc(-c2ccnc(C(=O)N(O)Cc3ccccc3)c2)c1 | 158 to 162 °C |
| Cc1c(-c2ccc(F)nc2F)sc2nc(N)[nH]c(=O)c12 | 330 to 335 °C |
| CCONC(=O)c1cc(NCCCc2cccc(Cl)c2)ccn1 | 100 to 105 °C |
| C[C@@H]1CN(c2ccnc(C(=O)N(O)Cc3ccccc3)c2)C[C@H](C)O1 | 180 to 185 °C |
| CC(C)(C)OC(=O)N1CCC=C(c2ccnc(C(=O)N(O)Cc3ccccc3)c2)C1 | 128 to 134 °C |
| Cc1c(-c2ccc(F)cc2F)sc2nc(N)[nH]c(=O)c12 | 330 to 350 °C |
| Cl.O=C(c1cc(N2CCC(F)(F)C2)ccn1)N(O)Cc1ccccc1 | 162 to 166 °C |
| Cl.O=C(NO)c1cc(NS(=O)(=O)Cc2cccc(Br)c2)ccn1 | 197 to 205 °C |
| Cc1c(-c2cccc(Cl)c2F)sc2nc(N)[nH]c(=O)c12 | 330 to 350 °C |
| Cc1c(-c2ccccc2Cl)sc2nc(N)[nH]c(=O)c12 | 334 to 336 °C |
| O=C(c1cc(N2CCCCC2)ccn1)N(O)CCCc1ccccc1 | 125 to 130 °C |
| Nc1nc2sc(Cc3ccccc3)cc2c(=O)[nH]1 | 294 to 296 °C |
| Cc1c(Cc2ccccc2)sc2nc(N)[nH]c(=O)c12 | 292 to 294 °C |
| Cl.O=C(c1cc(NS(=O)(=O)Cc2cccc(F)c2)ccn1)N(O)Cc1ccccc1 | 111 to 113 °C |
| Cl.O=C(NO)c1cc(NS(=O)(=O)Cc2ccc(Cl)c(Cl)c2)ccn1 | 228 to 238 °C |
| O=C(c1cc(C2CCCCC2)ccn1)N(O)Cc1ccccc1 | 106 to 110 °C |
| CCON(C)C(=O)c1ccc(-c2ccccc2)cn1 | 70 to 75 °C |
| O=C(c1cc(-c2ccc(Cl)cc2)ccn1)N(O)Cc1ccccc1 | 190 to 195 °C |
| Cc1c(-c2cnccn2)sc2nc(N)[nH]c(=O)c12 | 280 to 300 °C |
| O=C(c1ccc(N2CCCCC2)cn1)N(O)Cc1ccccc1 | 110 to 115 °C |
| CN(O)C(=O)c1cc2ccccc2cn1 | 110 to 115 °C |
| O=C(c1cc(C2=CC3CCC(C2)N3)ccn1)N(O)Cc1ccccc1 (stereo not drawn) | 95 to 100 °C |
| Cc1c(-c2ccccc2)sc2nc(NCCNC(=O)CCCN3CCN(C)CC3)[nH]c(=O)c12 | 192 to 196 °C |

| SMILES | melting point |
| --- | --- |
| Cl.O=C(NO)c1cc(NS(=O)(=O)Cc2cccc(C(F)(F)F)c2)ccn1 | 201 to 204 °C |
| Cc1c(-c2ccc(Cl)c(F)c2)sc2nc(N)[nH]c(=O)c12 | 350 to 370 °C |
| O=C(c1cc(N2CCC3(CC2)OCCO3)ccn1)N(O)Cc1ccccc1 | 98 to 102 °C |
| Cc1c(-c2ccccc2)sc2nc(N3CCOCC3)[nH]c(=O)c12 | 300 to 320 °C |
| O=C(c1cc2ccccc2cn1)N(Cc1ccccc1)OCc1ccccc1 | 70 to 75 °C |
| O=C(c1cc(-c2ccccc2)ccn1)N(O)Cc1ccccc1 | 160 to 165 °C |
| O=C(c1cc(NS(=O)(=O)Cc2ccccc2)ccn1)N(O)Cc1ccccc1 | 190 to 195 °C |
| Cl.O=C(c1cc(N2CCOCC2)ccn1)N(O)Cc1ccccc1 | 185 to 190 °C |
| NC(=O)c1ccc(-c2ccnc(C(=O)N(O)Cc3ccccc3)c2)cc1 | 155 to 160 °C |
| Cc1c(-c2ccccc2)sc2nc(NCCO)[nH]c(=O)c12 | 227 to 229 °C |
| O=C(c1cc(N2CCC(N3CCCC3)CC2)ccn1)N(O)Cc1ccccc1 | 135 to 140 °C |
| O=C(c1ccc(N2CCCC2)cn1)N(Cc1ccccc1)OCc1ccccc1 | 95 to 100 °C |
| O=C(c1cc2ccccc2cn1)N(O)Cc1ccccc1 | 120 to 125 °C |
| CC(C)c1cc2c(=O)[nH]c(N)nc2s1 | 347 to 349 °C |
| Cl.O=C(NO)c1cc(N2CCCCC2)ccn1 (hydrate or solvate) | 200 to 202 °C |
| CC(C)c1cccc(-c2ccc(C(=O)N(O)CCc3ccccc3)nc2)c1 | 110 to 115 °C |
| Cc1cccc(C(=O)NOCc2ccccc2)n1 | 75 to 80 °C |
| Cc1c(-c2cccc(CN(C)C)c2)sc2nc(N)[nH]c(=O)c12 | 207 to 212 °C |
| Cl.O=C(NO)c1cc(NS(=O)(=O)Cc2cccc(Cl)c2)ccn1 | 198 to 204 °C |
| O=C(NOCc1ccccc1)c1cc2ccccc2cn1 | 85 to 90 °C |
| O=C(NOCc1ccccc1)c1ccc(N2CCCC2)cn1 | 165 to 170 °C |
| Cc1c(-c2cc(C#N)ccc2Cl)sc2nc(N)[nH]c(=O)c12 | > 350 °C |
| O=C(c1cc(NS(=O)(=O)c2ccccc2)ccn1)N(O)Cc1ccccc1 | 175 to 180 °C |
| CCONC(=O)c1cc(N)ccn1.Cl (hydrate or solvate) | 114 to 120 °C |
| O=C(NOCc1ccccc1)c1cc(N2CCCCC2)ccn1 | 135 to 140 °C |
| O=C(c1cc2ccccc2cn1)N(O)CCc1ccccc1 | 90 to 95 °C |

| SMILES | melting point |
| --- | --- |
| CCONC(=O)c1cc(N2CCOCC2)ccn1.Cl (hydrate or solvate) | 200 to 202 °C |
| Cc1c(-c2ccccc2)sc2nc(NCCNC(=O)CCN3CCN(C)CC3)[nH]c(=O)c12 | 235 to 245 °C |
| O=C(NO)c1cc2ccccc2cn1 | 160 to 165 °C |
| Cc1c(-c2ccc(F)c(C#N)c2)sc2nc(N)[nH]c(=O)c12 | 330 to 350 °C |
| Cc1c(-c2ccc(Cl)c(C(F)(F)F)c2)sc2nc(N)[nH]c(=O)c12 | > 350 °C |
| Cc1cc(-c2sc3nc(N)[nH]c(=O)c3c2C)ccc1Cl | 330 to 350 °C |
| CCONC(=O)c1cc(NCc2cccc(OCc3ccccc3)c2)ccn1.Cl | 70 to 75 °C |
| Cc1c(-c2ccnc(Cl)c2F)sc2nc(N)[nH]c(=O)c12 | 330 to 350 °C |
| Cc1c(-c2ccc(F)cc2)sc2nc(N)[nH]c(=O)c12 | 325 to 335 °C |
| Cc1c(-c2cccnc2)sc2nc(N)[nH]c(=O)c12 | 280 to 290 °C |
| Cl.O=C(c1cc(NS(=O)(=O)Cc2cccc(C(F)(F)F)c2)ccn1)N(O)Cc1ccccc1 | 178 to 182 °C |
| Cc1c(-c2cc(CN(C)C)ccc2F)sc2nc(N)[nH]c(=O)c12 | 230 to 250 °C |
| Cc1c(-c2cccc(C#N)c2)sc2nc(N)[nH]c(=O)c12 | > 350 °C |
| O=C(c1cc(C2=CCCCC2)ccn1)N(O)Cc1ccccc1 | 118 to 122 °C |
| Cl.O=C(NO)c1cc(NS(=O)(=O)Cc2ccccc2F)ccn1 | 209 to 216 °C |
| Cl.O=C(NO)c1cc(NS(=O)(=O)Cc2ccc(Cl)cc2)ccn1 | 210 to 230 °C |
| Cc1c(C2=CCNCC2)sc2nc(N)[nH]c(=O)c12 | 290 to 310 °C |
| Cc1c(-c2ccc(F)c(C(F)(F)F)c2)sc2nc(N)[nH]c(=O)c12 | 310 to 330 °C |
| Cl.O=C(NO)c1cc(NS(=O)(=O)C(c2ccccc2)c2ccccc2)ccn1 | 162 to 168 °C |
| CCONC(=O)c1ccc(-c2ccccc2)cn1 | 100 to 105 °C |
| CC(C)(C)OC(=O)N1CC=C(c2ccnc(C(=O)N(O)Cc3ccccc3)c2)CC1 | 125 °C |
| CC(C)(C)OC(=O)NC1CCN(c2ccnc(C(=O)N(O)Cc3ccccc3)c2)CC1 | 135 to 140 °C |
| O=C(c1cc(-c2ccc(Cl)c(Cl)c2)ccn1)N(O)Cc1ccccc1 | 125 to 130 °C |
| Cc1c(-c2ccccc2)sc2nc(NCCCO)[nH]c(=O)c12 | 227 to 229 °C |
| CC(C)c1cccc(-c2ccc(C(=O)NO)nc2)c1 | 130 to 135 °C |
| Cc1cccc(-c2ccc(C(=O)N(O)Cc3ccccc3)nc2)c1 | 139 to 140 °C |

| SMILES | melting point |
| --- | --- |
| Cc1c(-c2ccnc(C(F)(F)F)c2)sc2nc(N)[nH]c(=O)c12 | 335 to 355 °C |
| Cc1c(-c2ccc(Cl)c(C(=O)N(C)C)c2)sc2nc(N)[nH]c(=O)c12 | 300 to 320 °C |
| Cc1c(-c2ccc(Cl)c(C#N)c2)sc2nc(N)[nH]c(=O)c12 | > 360 °C |
| Cl.O=C(c1cc(NS(=O)(=O)Cc2cccc(Cl)c2)ccn1)N(O)Cc1ccccc1 | 115 to 125 °C |
| Cl.O=C(c1cc(NS(=O)(=O)Cc2ccc(F)cc2)ccn1)N(O)Cc1ccccc1 | 178 to 183 °C |
| CC(c1ccccc1)c1cc2c(=O)[nH]c(N)nc2s1 (stereo not drawn) | 260 to 270 °C |
| O=C(c1cc(N2CCOCC2)ccn1)N(O)Cc1ccccc1 | 105 to 110 °C |
| O=C(NO)c1ccc(-c2ccccc2)cn1 | 175 to 180 °C |
| Cc1c(-c2ccc(Cl)nc2)sc2nc(N)[nH]c(=O)c12 | 230 to 250 °C |
| Cc1c(-c2c(F)ccc(Cl)c2F)sc2nc(N)[nH]c(=O)c12 | 330 to 350 °C |
| Cl.O=C(c1cc(NS(=O)(=O)Cc2cc(Cl)cc(Cl)c2)ccn1)N(O)Cc1ccccc1 | 189 to 194 °C |
| O=C(c1ccc(-c2ccccc2)cn1)N(O)Cc1ccccc1 | 145 to 150 °C |
| CN(C)CCNC(=O)c1cccc(-c2ccnc(C(=O)N(O)Cc3ccccc3)c2)c1 | 65 to 70 °C |
| O=C(c1cc(-c2cccc(CO)c2)ccn1)N(O)Cc1ccccc1 | 150 to 155 °C |
| O=C(c1ccc(N2CCCC2)cn1)N(O)Cc1ccccc1 | 115 to 120 °C |
| O=C(NOCc1ccccc1)c1ccc(-c2ccccc2)cn1 | 155 to 160 °C |
| O=C(c1cc(-c2ccccc2)ccn1)N(O)Cc1ccc(F)cc1 | 135 to 140 °C |
| Cl.O=C(c1cc(N2CCC(F)(F)CC2)ccn1)N(O)Cc1ccccc1 | 90 to 95 °C |
| Cc1c(-c2ccc(Cl)cc2F)sc2nc(N)[nH]c(=O)c12 | 320 to 340 °C |
| Cc1c(Cc2ccc(Cl)cc2)sc2nc(N)[nH]c(=O)c12 | 300 to 320 °C |
| Cc1c(-c2ccccc2)sc2nc(Nc3ccccc3)[nH]c(=O)c12 | 270 to 290 °C |
| CCONC(=O)c1cc(NCC2CCN(Cc3ccccc3)CC2)ccn1.Cl.Cl (hydrate or solvate) | 125 to 130 °C |
| Cl.O=C(NO)c1cc(NS(=O)(=O)Cc2cccc(F)c2)ccn1 | 195 to 200 °C |
| CN(C)S(=O)(=O)c1cccc(-c2ccnc(C(=O)N(O)Cc3ccccc3)c2)c1 | 110 to 115 °C |
